Experimental data as given in patent publication US12435059B2, “AMP-activated protein kinase inhibitors and methods of making and using the same” (The Regents of the University of Colorado, priority 2019, dated 2025).

Legend:
Experiment in all cases: biochemical
Type in all cases: binding
[1] = molecular target: 468 kinases (Homo sapiens, UniProt P07949, V804L); settings: RET(V804L); read-out: % Inhibition @ 100 nM
[2] = molecular target: 468 kinases (Homo sapiens, UniProt Q13177); settings: PAK2; read-out: % Inhibition @ 100 nM
[3] = molecular target: 468 kinases (Homo sapiens, UniProt Q8WTQ7); settings: GRK7; read-out: % Inhibition @ 100 nM
[4] = molecular target: 468 kinases (Homo sapiens, UniProt Q8TD08); settings: ERK8; read-out: % Inhibition @ 100 nM
[5] = molecular target: 468 kinases (Homo sapiens, UniProt P50750); settings: CDK9; read-out: % Inhibition @ 100 nM
[6] = molecular target: 468 kinases (Homo sapiens, UniProt Q14289); settings: PYK2; read-out: % Inhibition @ 100 nM
[7] = molecular target: 468 kinases (Homo sapiens, UniProt Q8N4C8); settings: MINK; read-out: % Inhibition @ 100 nM
[8] = molecular target: 468 kinases (Homo sapiens, UniProt P21860); settings: ERBB3; read-out: % Inhibition @ 100 nM
[9] = molecular target: 468 kinases (Homo sapiens, UniProt P08581, Y1235D); settings: MET(Y1235D); read-out: % Inhibition @ 100 nM
[10] = molecular target: 468 kinases (Homo sapiens, UniProt Q8N5S9); settings: CAMKK1; read-out: % Inhibition @ 100 nM
[11] = molecular target: 468 kinases (Homo sapiens, UniProt Q05655); settings: PRKCD; read-out: % Inhibition @ 100 nM
[12] = molecular target: 468 kinases (Homo sapiens, UniProt Q12866); settings: MERTK; read-out: % Inhibition @ 100 nM
[13] = molecular target: 468 kinases (Homo sapiens, UniProt Q04771); settings: ACVR1; read-out: % Inhibition @ 100 nM
[14] = molecular target: 468 kinases (Homo sapiens, UniProt P54756); settings: EPHA5; read-out: % Inhibition @ 100 nM
[15] = molecular target: 468 kinases (Homo sapiens, UniProt Q15831); settings: LKB1; read-out: % Inhibition @ 100 nM
[16] = molecular target: 468 kinases (Homo sapiens, UniProt Q99683); settings: ASK1; read-out: % Inhibition @ 100 nM
[17] = molecular target: 468 kinases (Homo sapiens, UniProt Q9Y463); settings: DYRK1B; read-out: % Inhibition @ 100 nM
[18] = molecular target: 468 kinases (Homo sapiens, UniProt P35916); settings: FLT4; read-out: % Inhibition @ 100 nM
[19] = molecular target: 468 kinases (Homo sapiens, UniProt Q6XUX3); settings: RIPK5; read-out: % Inhibition @ 100 nM
[20] = molecular target: 468 kinases (Homo sapiens, UniProt Q8IVW4); settings: CDKL3; read-out: % Inhibition @ 100 nM
[21] = molecular target: 468 kinases (Homo sapiens, UniProt P54764); settings: EPHA4; read-out: % Inhibition @ 100 nM
[22] = molecular target: 468 kinases (Homo sapiens, UniProt Q13043); settings: MST1; read-out: % Inhibition @ 100 nM
[23] = molecular target: 468 kinases (Homo sapiens, UniProt P42679); settings: CTK; read-out: % Inhibition @ 100 nM
[24] = molecular target: 468 kinases (Homo sapiens, UniProt Q9NRP7); settings: STK36; read-out: % Inhibition @ 100 nM
[25] = molecular target: 468 kinases (Homo sapiens, UniProt P36897); settings: TGFBR1; read-out: % Inhibition @ 100 nM
[26] = molecular target: 468 kinases (Homo sapiens, UniProt Q52WX2); settings: SBK1; read-out: % Inhibition @ 100 nM
[27] = molecular target: 468 kinases (Homo sapiens, UniProt P49840); settings: GSK3A; read-out: % Inhibition @ 100 nM
[28] = molecular target: 468 kinases (Homo sapiens, UniProt P42336, E545A); settings: PIK3CA(E545A); read-out: % Inhibition @ 100 nM
[29] = molecular target: 468 kinases (Homo sapiens, UniProt Q15569); settings: TESK1; read-out: % Inhibition @ 100 nM
[30] = molecular target: 468 kinases (Homo sapiens, UniProt P00533, L858R/T790M); settings: EGFR(L858R,T790M); read-out: % Inhibition @ 100 nM
[31] = molecular target: 468 kinases (Homo sapiens, UniProt O00506); settings: YSK1; read-out: % Inhibition @ 100 nM
[32] = molecular target: 468 kinases (Homo sapiens, UniProt Q9H2G2); settings: SLK; read-out: % Inhibition @ 100 nM
[33] = molecular target: 468 kinases (Homo sapiens, UniProt P21709); settings: EPHA1; read-out: % Inhibition @ 100 nM

Row | SMILES | inhibition at 0.1 µM [1] [%] | inhibition at 0.1 µM [2] [%] | inhibition at 0.1 µM [3] [%] | inhibition at 0.1 µM [4] [%] | inhibition at 0.1 µM [5] [%] | inhibition at 0.1 µM [6] [%] | inhibition at 0.1 µM [7] [%] | inhibition at 0.1 µM [8] [%] | inhibition at 0.1 µM [9] [%] | inhibition at 0.1 µM [10] [%] | inhibition at 0.1 µM [11] [%] | inhibition at 0.1 µM [12] [%] | inhibition at 0.1 µM [13] [%] | inhibition at 0.1 µM [14] [%] | inhibition at 0.1 µM [15] [%] | inhibition at 0.1 µM [16] [%] | inhibition at 0.1 µM [17] [%] | inhibition at 0.1 µM [18] [%] | inhibition at 0.1 µM [19] [%] | inhibition at 0.1 µM [20] [%] | further results
1 | CCN(CC)CCNC(=O)c1c(C)[nH]c(/C=C2\C(=O)Nc3ccc(CCO)cc32)c1C [Compound No. 10, (Z)—N-(2-(Diethylamino)ethyl)-5-((5-(2-hydroxyethyl)-2-oxoindolin-3-ylidene)methyl)-2,4-dimethyl-1H-pyrrole-3-carboxamide] | 91.1 | 0 | 40 | 15 | 0 | 31 | 91.8 | 14 | 4 | 15 | 16 | 71 | 0 | 0 | 31 | 0 | 75 | 27 | 0 | 22 | inhibition at 0.1 µM [21]: 0%; inhibition at 0.1 µM [22]: 28%; inhibition at 0.1 µM [23]: 22%; inhibition at 0.1 µM [24]: 0%; inhibition at 0.1 µM [25]: 11%; inhibition at 0.1 µM [26]: 40%; inhibition at 0.1 µM [27]: 3%; inhibition at 0.1 µM [28]: 3%; inhibition at 0.1 µM [29]: 10%; inhibition at 0.1 µM [30]: 0%; inhibition at 0.1 µM [31]: 21%; inhibition at 0.1 µM [32]: 59%; inhibition at 0.1 µM [33]: 0%
2 | CCN(CC)CCNC(=O)c1c(C)[nH]c(/C=C2\C(=O)Nc3ccc(CCC(N)=O)cc32)c1C [Compound No. 16, (Z)-5-((5-(3-Amino-3-oxopropyl)-2-oxoindolin-3-ylidene)methyl)-N-(2-(diethylamino)ethyl)-2,4-dimethyl-1H-pyrrole-3-carboxamide] | 86 | 0 | 76 | 25 | 6 | 7 | 81 | 11 | 0 | 28 | 9 | 68 | 18 | 9 | 16 | 20 | 0 | 56 | 3 | 0 | inhibition at 0.1 µM [21]: 0%; inhibition at 0.1 µM [22]: 0%; inhibition at 0.1 µM [23]: 16%; inhibition at 0.1 µM [24]: 0%; inhibition at 0.1 µM [25]: 1%; inhibition at 0.1 µM [26]: 58%; inhibition at 0.1 µM [27]: 10%; inhibition at 0.1 µM [28]: 10%; inhibition at 0.1 µM [29]: 5%; inhibition at 0.1 µM [30]: 18%; inhibition at 0.1 µM [31]: 22%; inhibition at 0.1 µM [32]: 37%; inhibition at 0.1 µM [33]: 0%
